# Target: hTREM2 (Homo sapiens, UniProt Q9NZC2)
# Assay: TREM2 activity by cellular Syk phosphorylation (AlphaScreen/AlphaLISA) in TREM2/DAP12-HEK cells, used for Examples 1-305
# Type: cell-based
# Design: expressed in transfected cells
# Details: HEK293 Cells
# Procedure, shortened: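 Single-cell-cloned HEK293 cells overexpressing TREM2 and DAP12, seeded 20 h, exposed to test articles (1% final DMSO) for 45 min at room temperature. Lysates read for phospho-Syk (Tyr525/526) vs total Syk by AlphaScreen. Signal normalised as percent of control between isotype IgG and 100 nM anti-TREM2 antibody; 4-parameter logistic fit.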
# Chain of hTREM2 (Q9NZC2 19-230): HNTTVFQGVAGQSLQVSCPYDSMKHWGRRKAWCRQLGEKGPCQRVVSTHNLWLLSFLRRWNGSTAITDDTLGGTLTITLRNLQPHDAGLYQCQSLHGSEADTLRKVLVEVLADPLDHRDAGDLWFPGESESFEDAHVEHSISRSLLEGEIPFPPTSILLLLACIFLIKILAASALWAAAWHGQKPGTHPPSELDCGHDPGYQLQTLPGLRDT
# Chain of hTREM2 (O43914 22-113 partner): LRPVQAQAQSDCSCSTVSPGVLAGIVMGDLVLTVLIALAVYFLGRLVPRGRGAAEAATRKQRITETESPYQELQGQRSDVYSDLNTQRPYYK
EC50 [nM],hTREM2 Emax,Compound
50 to 500,+++ (Emax>150 and ≤250),"Cc1cc(F)ccc1-c1nc(N2CCO[C@@H](c3cnn(C)c3)C2)nc2nc(C)c(C)nc12 [Example 59, 4-(4-fluoro-2-methylphenyl)-6,7-dimethyl-2-((2S)-2-(1-methyl-1H-pyrazol-4-yl)-4-morpholinyl)pteridine]"
500 to 3000,+++ (Emax>150 and ≤250),"Cc1ncc([C@H]2CN(c3nc(-c4ccc(C(F)(F)F)nc4)c4nc(C)c(C)nc4n3)CCO2)cn1 [Example 294, (S)-4-(6,7-dimethyl-4-(6-(trifluoromethyl)pyridin-3-yl)pteridin-2-yl)-2-(2-methylpyrimidin-5-yl)morpholine]"
50 to 500,+ (Emax>45 and ≤100),"Cc1cc([C@H]2CN(c3nc(CCC(F)(F)F)c4nc(C)c(C)nc4n3)CCO2)ccn1 [Example 41, 6,7-dimethyl-2-((2S)-2-(2-methyl-4-pyridinyl)-4-morpholinyl)-4-(3,3,3-trifluoropropyl)pteridine]"
≤ 50,+++ (Emax>150 and ≤250),"Cc1nc2nc([C@H]3CCO[C@@H](c4cnn(C)c4)C3)nc(C3CCC(F)(F)CC3)c2nc1C (single isomer, unassigned) [Example 176]"
≤ 50,+++ (Emax>150 and ≤250),"Cc1nc2nc(N3CCO[C@@H](c4cnn(C5CC5)c4)C3)nc(C34CC(C(F)(F)F)(C3)C4)c2nc1C [Example 64, 2-((2S)-2-(1-cyclopropyl-1H-pyrazol-4-yl)-4-morpholinyl)-6,7-dimethyl-4-(3-(trifluoromethyl)bicyclo[1.1.1]pentan-1-yl)pteridine]"
50 to 500,+++ (Emax>150 and ≤250),"Cc1nc2nc(N3CCO[C@@H](c4cnn(C)c4)C3)nc([C@H]3C[C@@H](C(F)F)C3)c2nc1C [Example 44, 4-(cis-3-(difluoromethyl)cyclobutyl)-6,7-dimethyl-2-((2S)-2-(1-methyl-1H-pyrazol-4-yl)-4-morpholinyl)pteridine]"
50 to 500,+++ (Emax>150 and ≤250),"Cc1nc2nc(N3CCO[C@@H](c4cnn(C)c4)C3)nc(C3=CCC(C(F)(F)F)CC3)c2nc1C (stereo partly drawn) [Example 254, (2S)-4-(6,7-dimethyl-4-(4-(trifluoromethyl)cyclohex-1-en-1-yl)pteridin-2-yl)-2-(1-methyl-1H-pyrazol-4-yl)morpholine]"
3000 to 100000,–,"Cc1nc2nc(N3CCO[C@@H](c4cnn(C)c4)C3)nc(N3CC(F)C3)c2nc1C [Example 29, 4-(3-fluoro-1-azetidinyl)-6,7-dimethyl-2-((2S)-2-(1-methyl-1H-pyrazol-4-yl)-4-morpholinyl)pteridine]"
≤ 50,+++ (Emax>150 and ≤250),"Cc1nc2nc([C@@H]3CCO[C@H](c4cnn(C5CC5)c4)C3)nc(-c3ccc(F)cc3F)c2nc1C [Example 241, 2-((2S,4R)-2-(1-cyclopropyl-1H-pyrazol-4-yl)tetrahydro-2H-pyran-4-yl)-4-(2,4-difluorophenyl)-6,7-dimethylpteridine]"
50 to 500,+ (Emax>45 and ≤100),"Cc1nc2nc(N3CCO[C@@H](c4cnn(C)c4)C3)nc([C@H]3CC[C@@H](C)CC3)c2nc1C [Example 135, 6,7-dimethyl-4-(cis-4-methylcyclohexyl)-2-((2S)-2-(1-methyl-1H-pyrazol-4-yl)-4-morpholinyl)pteridine]"
≤ 50,+++ (Emax>150 and ≤250),"Cc1nc2nc([C@@H]3CCO[C@H](c4cnn(C5CC5)c4)C3)nc(-c3ccc(C(F)(F)F)nc3)c2nc1C [Example 301, 2-((2S,4R)-2-(1-cyclopropyl-1H-pyrazol-4-yl)tetrahydro-2H-pyran-4-yl)-6,7-dimethyl-4-(6-(trifluoromethyl)pyridin-3-yl)pteridine]"
≤ 50,++ (Emax>100 and ≤150),"Cc1nc2nc(N3CCO[C@@H](c4cnn(C5CC5)c4)C3)nc(C3CC4(C3)CC(F)(F)C4)c2nc1C [Example 49, 2-((2S)-2-(1-cyclopropyl-1H-pyrazol-4-yl)-4-morpholinyl)-4-(6,6-difluorospiro[3.3]heptan-2-yl)-6,7-dimethylpteridine]"

# More lines, now with the values behind:
Compound,EC50 [nM],hTREM2 Emax
"Cc1ccc(-c2nc([C@H]3CCO[C@H](c4cnn(C)c4)C3)nc3nc(C)c(C)nc23)c(F)c1 [Example 264, 4-(2-fluoro-4-methylphenyl)-6,7-dimethyl-2-((2S,4S)-2-(1-methyl-1H-pyrazol-4-yl)tetrahydro-2H-pyran-4-yl)pteridine]",500 to 3000,++++ (Emax>250)
"Cc1cnc2c(-c3ccc(Cl)cc3F)nc(N3CCO[C@@H](c4cnc(C)nc4)C3)nc2n1 [Example 4, 4-(4-chloro-2-fluorophenyl)-7-methyl-2-((2S)-2-(2-methyl-5-pyrimidinyl)-4-morpholinyl)pteridine]",50 to 500,+++ (Emax>150 and ≤250)
"Cc1cc2c(-c3ccc(F)cc3F)nc([C@H]3CCO[C@@H](c4cnn(C)c4)C3)nc2nc1C (single isomer, unassigned) [Example 201]",≤ 50,+++ (Emax>150 and ≤250)
"Cc1nc2nc([C@@H]3CCO[C@H](c4cnn(C)c4)C3)cc(-c3ccc(F)cc3F)c2nc1C [Example 255, 8-(2,4-difluorophenyl)-2,3-dimethyl-6-((2S,4R)-2-(1-methyl-1H-pyrazol-4-yl)tetrahydro-2H-pyran-4-yl)pyrido[2,3-b]pyrazine]",500 to 3000,++ (Emax>100 and ≤150)
"Cn1cc([C@H]2CN(c3nc(-c4ccc(Cl)cc4F)c4cccnc4n3)CCO2)cn1 [Example 83, 4-(4-chloro-2-fluorophenyl)-2-((2S)-2-(1-methyl-1H-pyrazol-4-yl)-4-morpholinyl)pyrido[2,3-d]pyrimidine]",500 to 3000,++++ (Emax>250)
"Cc1ccc(-c2nc(N3CCO[C@@H](c4cnn(C)c4)C3)nc3nc(C)ccc23)c(F)c1 [Example 94, 4-(2-fluoro-4-methylphenyl)-7-methyl-2-((2S)-2-(1-methyl-1H-pyrazol-4-yl)-4-morpholinyl)pyrido[2,3-d]pyrimidine]",50 to 500,+++ (Emax>150 and ≤250)
"Cc1cc([C@@H]2CN(c3nc4nc(C)cnc4c([C@H]4C[C@@H](C(F)(F)F)C4)n3)CCO2)cnn1 (single isomer, unassigned) [Example 14]",50 to 500,++ (Emax>100 and ≤150)
"Cc1ccc(-c2nc([C@@H]3CCO[C@@H](c4cnn(C)c4)C3)nc3nc(C)c(C)cc23)c(F)c1 [Example 268, 4-(2-fluoro-4-methylphenyl)-6,7-dimethyl-2-((2R,4R)-2-(1-methyl-1H-pyrazol-4-yl)tetrahydro-2H-pyran-4-yl)pyrido[2,3-d]pyrimidine]",500 to 3000,++++ (Emax>250)
"Cc1nc2nc([C@H]3CCO[C@H](c4cnn(C)c4)C3)cc(-c3ccc(Cl)cc3F)c2nc1C (single isomer, unassigned) [Example 186]",500 to 3000,+++ (Emax>150 and ≤250)
"Cc1ccc2c(-c3ccc(Cl)cc3F)nc(N3CCO[C@@H](c4cnc(C)nc4)C3)nc2n1 (single isomer, unassigned) [Example 90]",50 to 500,+++ (Emax>150 and ≤250)
"Cc1cnc2c(-c3ccc(Cl)cc3F)cc([C@H]3CCO[C@@H](c4cnn(C)c4)C3)nc2n1 (single isomer, unassigned) [Example 185]",50 to 500,+++ (Emax>150 and ≤250)
"Cc1cc([C@H]2CN(c3nc4nc(C)c(C)cc4c([C@H]4C[C@H](C(F)(F)F)C4)n3)CCO2)cnn1 (single isomer, unassigned) [Example 114]",≤ 50,+++ (Emax>150 and ≤250)
"Cc1ncc([C@H]2CN(c3nc(-c4ccc(Cl)cc4F)c4nc(C)c(C)nc4n3)CCO2)cn1 (single isomer, unassigned) [Example 24]",50 to 500,++++ (Emax>250)
"Cc1nc2cc(N3CCO[C@@H](c4cnn(C)c4)C3)cc(-c3ccc(F)cc3F)c2nc1C [Example 164, 5-(2,4-difluorophenyl)-2,3-dimethyl-7-((2S)-2-(1-methyl-1H-pyrazol-4-yl)-4-morpholinyl) quinoxaline]",≤ 50,++++ (Emax>250)
"Cc1ccc(-c2nc([C@@H]3CCO[C@H](c4cnn(C)c4)C3)nc3nc(C)c(C)cc23)c(F)c1 (single isomer, unassigned) [Example 202]",500 to 3000,++ (Emax>100 and ≤150)
"Cc1cc([C@H]2CN(c3cc(-c4ccc(F)cc4F)c4cnc(C)nc4c3)CCO2)ccn1 [Example 154, 5-(2,4-difluorophenyl)-2-methyl-7-((2S)-2-(2-methyl-4-pyridinyl)-4-morpholinyl) quinazoline]",50 to 500,++++ (Emax>250)
"Cc1ccc2c(-c3ccc(Cl)cc3F)nc([C@@H]3CCO[C@H](c4cnn(C)c4)C3)nc2n1 [Example 288, 4-(4-chloro-2-fluorophenyl)-7-methyl-2-((2S,4R)-2-(1-methyl-1H-pyrazol-4-yl)tetrahydro-2H-pyran-4-yl)pyrido[2,3-d] pyrimidine]",≤ 50,++ (Emax>100 and ≤150)
"Cc1cnc2c(-c3ccc(Cl)cc3F)nc(N3CCOC(C4CCOC4)C3)nc2n1 (stereo not drawn) [Example 5, 4-(4-chloro-2-fluorophenyl)-7-methyl-2-(2-(tetrahydro-3-furanyl)-4-morpholinyl)pteridine]",500 to 3000,+++ (Emax>150 and ≤250)
"Cc1cc([C@H]2CN(c3nc4nc(C)c(C)nc4c([C@H]4C[C@@H](C(F)F)C4)n3)CCO2)ccn1 [Example 53, 4-(cis-3-(difluoromethyl)cyclobutyl)-6,7-dimethyl-2-((2S)-2-(2-methyl-4-pyridinyl)-4-morpholinyl)pteridine]",≤ 50,++ (Emax>100 and ≤150)
"Cc1cc([C@H]2C[C@@H](c3nc(-c4ccc(Cl)cc4F)c4ncc(C)nc4n3)CCO2)ccn1 (single isomer, unassigned) [Example 171]",≤ 50,+++ (Emax>150 and ≤250)

# Reference: patent US11884675B2, “Heterocyclic compounds as triggering receptor expressed on myeloid cells 2 agonists and methods of use” (AMGEN INC., priority 2020, dated 2024)
